Like-named read-outs stand apart in the source and are kept apart here.
Legend:
[1] = In vitro permeation across cadaver nail plate in modified Franz diffusion cell; assay type: in vitro ADME, human
Experimental: The permeation study was performed in Franz diffusion cells fitted with nail adapter. The finger nails (from all fingers except the little finger) of human cadavers obtained from ScienceCare were used for the transport studies. The nail plates were cleaned with water, and nail plates of 400-450 micron thickness were selected and visually inspected for presence of any cracks or pores. After mounting on the diffusion cell, the donor as well as the receiver compartments were filled with phosphate buffered saline […] and allowed to equilibrate for 3 hours for complete hydration of the nail plate. The electrical resistivity across the nail plate was measured prior to removal of the buffer to check the intactness of the nail plate after hydration.
The permeation testing was performed using modified Franz diffusion cell. The cell consisted of two compartments: a (1) a donor compartment for placing the drug solution/formulation and (2) a receiver compartment containing the buffer in which the drug diffuses. A nail holder is placed between the two compartments. The nail holder is curved to accommodate the contour of nail plate and secures the nail between the upper and lower part of the holder.
The donor compartment was filled with 500 microliters of drug solution (50 mg/ml) prepared in ethyl alcohol. For the control sample, no enhancer was incorporated. In the test cells, the enhancer was incorporated (5% PEG or 5% dexpanthenol or both). The donor compartment was covered with parafilm to minimize the loss of solvent. The drug solution was removed every 2 hours, the donor compartment was washed two times with 500 microliters of alcohol, and fresh drug solution (50 mg/ml) was placed in the donor compartment. […] The receiver compartment fluid was sampled at predetermined time points (e.g., 0, 12, 24, 36, 48, 60, 72, 84, 96, 108, 120, 132, 144, 156, 192, 204, […]) and the amount of drug permeated across the nail plate was quantitated by high pressure liquid chromatography.

[2] = 5% enhancer in 5% w/v AR-12 solution in ethanol, 24 h; FIG. 1

NCC(=O)Nc1ccc(-n2nc(C(F)(F)F)cc2-c2ccc3c(ccc4ccccc43)c2)cc1 [AR-12, 2-amino-N-(4-(5-(phenanthren-2-yl)-3-(trifluoromethyl)-1H-pyrazol-1-yl)phenyl)acetamide]
amount of drug permeated in a one week period across the nail plate ([1]; control, no enhancer, drug solution 50 mg/ml in ethyl alcohol, one week): 658 ± 306 ng

CC(C)(CO)[C@@H](O)C(=O)NCCCO [dexpanthenol]
enhancement of permeation flux of AR-12 across the nail plate ([1]; 5% enhancer in AR-12 solution (50 mg/ml in ethyl alcohol) versus control without enhancer, one week, FIG. 2): four fold | suitability as enhancer for trans-ungual delivery of AR-12 (AR-12 accumulated in nail plate) [2]: preferred enhancers

polyethylene glycol 400 [PEG-400]
enhancement of permeation flux of AR-12 across the nail plate [1]: about six fold
